Reference: ChEMBL document CHEMBL1667758, “Synthesis and biological activity of novel inhibitors of topoisomerase I: 2-aryl-substituted 2-bis-1H-benzimidazoles” (Eur J Med Chem, 2011)
Calls of active or inactive are those of the source. The calls are words filed in the database; no cut-off is given here.

Experiments:
[1] = Lipophilicity, log P of the compound; format: physicochemical; details: octanol/water
Calf thymus DNA [2] = assay: Binding affinity to calf thymus DNA assessed as hypochromicity at DNA/drug ratio 4 after 15 mins by UV-vis spectrophotometer analysis; format: nucleic-acid assay; details: Bos taurus
Homo sapiens [3] = organism: Homo sapiens; assay: Inhibition of human purified topoisomerase 1b-mediated relaxation of supercoiled pBS (SK+) DNA at 50 uM after 30 mins by agarose gel electrophoresis
MCF7 [4] = assay: cells; details: Homo sapiens, MCF7, 72 h
Description: Cytotoxicity against human MCF7 cells after 72 hrs by MTT assay

HeLa [5] = assay: cells; details: Homo sapiens, 72 h
Description: Cytotoxicity against human HeLa cells after 72 hrs by MTT assay

[6] = Cytotoxicity against human U87 cells after 72 hrs by MTT assay; format: functional, cell-based, U-87MG ATCC; details: U-87 MG
Homo sapiens [7] = organism: Homo sapiens; assay: Inhibition of human purified topoisomerase 1b-mediated relaxation of supercoiled pBS (SK+) DNA at 75 uM after 30 mins by agarose gel electrophoresis
Calf thymus DNA [8] = assay: Binding affinity to calf thymus DNA after 5 mins by fluorescence assay; format: nucleic-acid assay; details: Bos taurus
Homo sapiens [9] = organism: Homo sapiens; assay: Inhibition of human purified topoisomerase 1b-mediated relaxation of supercoiled pBS (SK+) DNA at 25 uM after 30 mins by agarose gel electrophoresis
HeLa [10] = assay: Ratio of compound IC50 to Hoechst 33342 IC50 for human HeLa cells; format: functional
[11] = Ratio of compound IC50 to Hoechst 33342 IC50 for human U87 cells; format: functional, U-87MG ATCC
HeLa [12] = assay: Ratio of compound IC50 to camptothecin IC50 for human HeLa cells; format: functional
MCF7 [13] = assay: Ratio of compound IC50 to Hoechst 33342 IC50 for human MCF7 cells; format: functional
Homo sapiens [14] = organism: Homo sapiens; assay: Inhibition of human purified topoisomerase 1b-mediated relaxation of supercoiled pBS (SK+) DNA at 10 uM after 30 mins by agarose gel electrophoresis

Compound | logP [1] | Activity (Calf thymus DNA [2]) [%] | inhibition (Homo sapiens [3]) [%] | IC50 (MCF7 [4]) [µM] | IC50 (HeLa [5]) [nM] | IC50 [6] [µM] | inhibition (Homo sapiens [7]) [%] | Activity (Calf thymus DNA [8]) | Activity (Homo sapiens [9]) | Ratio IC50 (HeLa [10]) | Ratio IC50 [11] | Ratio IC50 (HeLa [12]) | Ratio IC50 (MCF7 [13]) | inhibition (Homo sapiens [14]) [%]
COc1cc(-c2nc3ccc(-c4nc5ccc(N6CCN(C)CC6)cc5[nH]4)cc3[nH]2)cc(OC)c1OC | 3.36 | 27 | 90 | 16.8 | 29300 | > 100 | 90 | – | – | – | – | – | – | –
CN1CCN(c2ccc3nc(-c4ccc5nc(-c6ccc(F)cc6F)[nH]c5c4)[nH]c3c2)CC1 | 4.05 | -20 | – | 5.5 | 1500 | 5.5 | – | Active | Active | – | – | – | – | –
COc1ccc(-c2nc3cc(-c4nc5cc(N6CCN(C)CC6)ccc5[nH]4)ccc3[nH]2)cc1OC | 3.48 | 1 | 90 | 5.3 | 3400 | > 100 | 90 | – | – | – | – | – | – | –
CCOc1ccc(-c2nc3cc(-c4nc5cc(N6CCN(C)CC6)ccc5[nH]4)ccc3[nH]2)cc1 | 3.95 | 38 | – | 0.5 | 300 | 4.2 | – | Active | – | 2 | – | – | – | –
CN1CCN(c2ccc3nc(-c4ccc5nc(-c6ccc(Cl)cc6Cl)[nH]c5c4)[nH]c3c2)CC1 | 4.85 | 28 | – | 1.3 | 600 | 1.5 | – | Active | Active | – | 2.8 | 3 | 2.6 | –
CC[C@@]1(O)C(=O)OCc2c1cc1n(c2=O)Cc2cc3ccccc3nc2-1 [CAMPTOTHECIN] | – | – | – | 0.65 | 1500 | 0.5 | – | – | – | – | – | – | – | 80
